Measurements from the NIST ThermoML archive (doi:10.1021/acs.jced.8b00124).
± gives the expanded uncertainty stated by the source.

Tests used:
[1] = Crystal; DTA
[2] = Molar enthalpy of transition or fusion; conditions: Crystal; DSC

**Q.** What does the source list for `Cc1cc(C)nc(Nc2ccccc2)n1` [2-anilino-4,6-dimethylpyrimidine]?
**A.** Normal melting temperature [1]: 96.14 ± 1.1 °C; Molar enthalpy of transition or fusion [2]: 25.4 ± 1.1 kJ/mol
